# Measurements reported in PubChem BioAssay AID330 (DTP/NCI, 2004).
# Several values for one entry are separate records, joined by “and”; a condition that tells them apart may be missing. Identical values can stand only once. Inconclusive results and toxic doses are left out.
# Test system: P388 leukemia ip, CD2F1 mice, survival T/C
# Test: NCI In Vivo Anticancer Drug Screen. Data for tumor model P388 Leukemia (intraperitoneal) in CD2F1 (CDF1) mice
# Conditions: endpoint: median survival time, higher = longer survival
# Procedure, shortened: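 Mice carrying the transplanted tumor received test compound or vehicle. Survival was recorded in each group, and the value is the treated-group measurement divided by that of the vehicle-treated control group.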
# [1] = dose: 50.0 mg/kg/injection, schedule: Q01DX009 (ip), vehicle: saline with Tween-80
# [2] = dose: 100.0 mg/kg/injection, schedule: Q01DX009 (ip), vehicle: saline with Tween-80
# [3] = dose: 200.0 mg/kg/injection, schedule: Q01DX009 (ip), vehicle: saline with Tween-80
# [4] = dose: 60.0 mg/kg/injection, schedule: Q01DX005 (ip), vehicle: saline with Tween-80
# [5] = dose: 120.0 mg/kg/injection, schedule: Q01DX005 (ip), vehicle: saline with Tween-80
# [6] = dose: 240.0 mg/kg/injection, schedule: Q01DX005 (ip), vehicle: saline with Tween-80
# [7] = dose: 12.5 mg/kg/injection, schedule: Q01DX005 (ip), vehicle: saline with Tween-80
# [8] = dose: 25.0 mg/kg/injection, schedule: Q01DX005 (ip), vehicle: saline with Tween-80
# [9] = dose: 12.5 mg/kg/injection, schedule: Q01DX009 (ip), vehicle: saline
# [10] = dose: 25.0 mg/kg/injection, schedule: Q01DX009 (ip), vehicle: saline
# [11] = dose: 50.0 mg/kg/injection, schedule: Q01DX009 (ip), vehicle: saline
# [12] = dose: 100.0 mg/kg/injection, schedule: Q01DX009 (ip), vehicle: saline
# [13] = dose: 200.0 mg/kg/injection, schedule: Q01DX009 (ip), vehicle: saline
smiles,measurement,setting,value
COc1cccc2c1C(=O)c1c(O)c3c(c(O)c1C2=O)C[C@@](O)(C(=O)COC(=O)Cc1cccc2ccccc12)C[C@@H]3OC1CC(N)C(O)C(C)O1 (stereo partly drawn),T/C,"dose: 0.5 mg/kg/injection, schedule: Q01DX009 (ip), vehicle: other",164 % of control
same,T/C,"dose: 0.5 mg/kg/injection, schedule: Q01DX009 (ip), vehicle: saline with Tween-80",169 % of control
same,T/C,"dose: 0.5 mg/kg/injection, schedule: Q01DX009 (ip), vehicle: saline",107 % of control
same,T/C,"dose: 0.78 mg/kg/injection, schedule: Q01DX009 (ip), vehicle: other",157 % of control
same,T/C,"dose: 1.0 mg/kg/injection, schedule: Q01DX009 (ip), vehicle: other",156 % of control
same,T/C,"dose: 1.0 mg/kg/injection, schedule: Q01DX009 (ip), vehicle: saline with Tween-80",183 % of control
same,T/C,"dose: 1.0 mg/kg/injection, schedule: Q01DX009 (ip), vehicle: saline",121 % of control
same,T/C,"dose: 1.56 mg/kg/injection, schedule: Q01DX009 (ip), vehicle: other",190 % of control
same,T/C,"dose: 2.0 mg/kg/injection, schedule: Q01DX009 (ip), vehicle: other",170 % of control
same,T/C,"dose: 2.0 mg/kg/injection, schedule: Q01DX009 (ip), vehicle: saline with Tween-80",231 % of control
same,T/C,"dose: 2.0 mg/kg/injection, schedule: Q01DX009 (ip), vehicle: saline",124 % of control
same,T/C,"dose: 3.13 mg/kg/injection, schedule: Q01DX009 (ip), vehicle: other",245 % of control
same,T/C,"dose: 4.0 mg/kg/injection, schedule: Q01DX009 (ip), vehicle: other",113 % of control
same,T/C,"dose: 4.0 mg/kg/injection, schedule: Q01DX009 (ip), vehicle: saline with Tween-80",161 % of control and 277 % of control
same,T/C,"dose: 4.0 mg/kg/injection, schedule: Q01DX009 (ip), vehicle: saline",122 % of control
same,T/C,"dose: 8.0 mg/kg/injection, schedule: Q01DX009 (ip), vehicle: saline with Tween-80",100 % of control
same,T/C,"dose: 16.0 mg/kg/injection, schedule: Q01DX009 (ip), vehicle: saline with Tween-80",99 % of control
CC(C)(CNCc1ccccc1)COS(=O)(=O)O,T/C,"dose: 100.0 mg/kg/injection, schedule: Q01DX001 (ip), vehicle: saline",110 % of control
same,T/C,"dose: 200.0 mg/kg/injection, schedule: Q01DX001 (ip), vehicle: saline",105 % of control
same,T/C,"dose: 400.0 mg/kg/injection, schedule: Q01DX001 (ip), vehicle: saline",100 % of control
COc1cc(C2(C3CC(=O)OC3COC(c3ccccc3)(c3ccccc3)c3ccccc3)SCCCS2)cc(OC)c1OC (stereo not drawn),T/C,"dose: 100.0 mg/kg/injection, schedule: Q04DX002 (ip), vehicle: saline with Tween-80",88 % of control
O=C(NC(Cc1cnc[nH]1)C(=O)O)c1ccccc1 (stereo not drawn),T/C,[1],92 % of control
same,T/C,[2],98 % of control
same,T/C,[3],98 % of control
CC1=CC(C)(C)N(C)C(N)=N1,T/C,"dose: 12.5 mg/kg/injection, schedule: Q01DX005 (ip), vehicle: saline",100 % of control
same,T/C,"dose: 25.0 mg/kg/injection, schedule: Q01DX005 (ip), vehicle: saline",91 % of control
same,T/C,"dose: 50.0 mg/kg/injection, schedule: Q01DX005 (ip), vehicle: saline",91 % of control
COC(=O)C1c2cc(OC)c(OC)cc2C(=O)N2CCc3cc4c(cc3C12)OCO4 (stereo not drawn),T/C,"dose: 50.0 mg/kg/injection, schedule: Q04DX003 (ip), vehicle: distilled water + Tween-80",100 % of control and 101 % of control
same,T/C,"dose: 100.0 mg/kg/injection, schedule: Q04DX003 (ip), vehicle: distilled water + Tween-80",99 % of control and 105 % of control
same,T/C,"dose: 200.0 mg/kg/injection, schedule: Q04DX003 (ip), vehicle: distilled water + Tween-80",97 % of control and 101 % of control
same,T/C,"dose: 400.0 mg/kg/injection, schedule: Q04DX003 (ip), vehicle: distilled water + Tween-80",104 % of control and 100 % of control
CC12CCC(=O)C=C1C=CC1C2CCC2(C)C1CCC21CCC(=O)O1 (stereo not drawn),T/C,[1],94 % of control
same,T/C,[2],91 % of control
same,T/C,[3],97 % of control
COc1ccc2c3c1OC1C(O)C=CC4C(C2)N(C)CCC341 (stereo not drawn),T/C,"dose: 3.12 mg/kg/injection, schedule: Q01DX009 (ip), vehicle: saline with Tween-80",102 % of control
same,T/C,"dose: 6.25 mg/kg/injection, schedule: Q01DX009 (ip), vehicle: saline with Tween-80",105 % of control
same,T/C,"dose: 12.5 mg/kg/injection, schedule: Q01DX009 (ip), vehicle: saline with Tween-80",112 % of control
same,T/C,"dose: 25.0 mg/kg/injection, schedule: Q01DX009 (ip), vehicle: saline with Tween-80",114 % of control
Cc1cc2cc3c(C)cc(=O)oc3c(C)c2o1,T/C,[2],118 % of control
same,T/C,[3],112 % of control
same,T/C,"dose: 400.0 mg/kg/injection, schedule: Q01DX009 (ip), vehicle: saline with Tween-80",102 % of control
CCCc1nnc2n1NC1(CS2)Nc2ccccc2N1,T/C,"dose: 100.0 mg/kg/injection, schedule: Q01DX001 (ip), vehicle: saline with Tween-80",98 % of control
same,T/C,"dose: 200.0 mg/kg/injection, schedule: Q01DX001 (ip), vehicle: saline with Tween-80",97 % of control
same,T/C,"dose: 400.0 mg/kg/injection, schedule: Q01DX001 (ip), vehicle: saline with Tween-80",95 % of control
O=C(O)C12C3CCC(O3)C1(C(=O)O)C1CCC2O1 (stereo not drawn),T/C,[4],94 % of control
same,T/C,[5],90 % of control
same,T/C,[6],88 % of control
Clc1ccc(Nc2nnc(-c3ccc4c(c3)OCO4)o2)cc1,T/C,"dose: 50.0 mg/kg/injection, schedule: Q01DX005 (ip), vehicle: Klucel (hydroxypropylcellulose) (HPC)",93 % of control
same,T/C,"dose: 100.0 mg/kg/injection, schedule: Q01DX005 (ip), vehicle: Klucel (hydroxypropylcellulose) (HPC)",101 % of control
same,T/C,"dose: 200.0 mg/kg/injection, schedule: Q01DX005 (ip), vehicle: Klucel (hydroxypropylcellulose) (HPC)",93 % of control
CC1(C)O[P+]2(OC(C)(C)c3ccccc32)c2ccccc21,T/C,"dose: 100.0 mg/kg/injection, schedule: Q04DX002 (ip), vehicle: Klucel (hydroxypropylcellulose) (HPC)",96 % of control
same,T/C,"dose: 200.0 mg/kg/injection, schedule: Q04DX002 (ip), vehicle: Klucel (hydroxypropylcellulose) (HPC)",97 % of control
same,T/C,"dose: 400.0 mg/kg/injection, schedule: Q04DX002 (ip), vehicle: Klucel (hydroxypropylcellulose) (HPC)",96 % of control
CC(C)NC(=O)OCc1cn2c(c1COC(=O)NC(C)C)CCC2,T/C,[7],120 % of control and 121 % of control
same,T/C,[8],112 % of control
COc1ccc(C(c2cc3c(cc2O)OCO3)N2CCN(C(c3ccc(OC)cc3)c3cc4c(cc3O)OCO4)CC2)cc1 (stereo not drawn),T/C,[4],87 % of control
same,T/C,[5],92 % of control
same,T/C,[6],87 % of control
CS(=O)(=O)CC#N,T/C,"dose: 7.5 mg/kg/injection, schedule: Q01DX005 (ip), vehicle: saline",96 % of control
same,T/C,"dose: 15.0 mg/kg/injection, schedule: Q01DX005 (ip), vehicle: saline",100 % of control
same,T/C,"dose: 30.0 mg/kg/injection, schedule: Q01DX005 (ip), vehicle: saline",95 % of control
CC(CN1CCOCC1)(CN1CCOCC1)[N+](=O)[O-],T/C,[9],111 % of control
same,T/C,[10],110 % of control
same,T/C,[11],107 % of control and 111 % of control
same,T/C,[12],115 % of control
COc1ccccc1C(O)c1cnc(C)n1Cc1ccccc1 (stereo not drawn),T/C,[4],98 % of control
same,T/C,[5],107 % of control
same,T/C,[6],97 % of control
Nc1cc(Cl)c(Cl)c(Cl)c1N,T/C,[9],106 % of control
same,T/C,[10],104 % of control
same,T/C,[1],105 % of control
same,T/C,[11],103 % of control
same,T/C,[2],105 % of control
same,T/C,[12],105 % of control and 93 % of control
same,T/C,[3],102 % of control
same,T/C,[13],123 % of control and 93 % of control and 94 % of control
CC(=O)CC1(O)C(=O)C(C(C)(C)C)=CC2(C(C)(C)C)OC12 (stereo not drawn),T/C,[11],102 % of control
same,T/C,[12],95 % of control
same,T/C,[13],95 % of control
CC(C)SC(=O)C=C(c1ccccc1)c1ccccc1,T/C,"dose: 100.0 mg/kg/injection, schedule: Q01DX001 (ip), vehicle: Klucel (hydroxypropylcellulose) (HPC)",95 % of control
same,T/C,"dose: 200.0 mg/kg/injection, schedule: Q01DX001 (ip), vehicle: Klucel (hydroxypropylcellulose) (HPC)",96 % of control
same,T/C,"dose: 400.0 mg/kg/injection, schedule: Q01DX001 (ip), vehicle: Klucel (hydroxypropylcellulose) (HPC)",100 % of control
O=C1CN(Cc2ccc(Cl)cc2)CC(=O)N2CCCN12,T/C,[7],96 % of control
same,T/C,[8],100 % of control
same,T/C,"dose: 50.0 mg/kg/injection, schedule: Q01DX005 (ip), vehicle: saline with Tween-80",100 % of control
Cc1cc(=O)n2c(nc3ccccc32)o1,T/C,"dose: 60.0 mg/kg/injection, schedule: Q01DX005 (ip), vehicle: Klucel (hydroxypropylcellulose) (HPC)",104 % of control
same,T/C,"dose: 120.0 mg/kg/injection, schedule: Q01DX005 (ip), vehicle: Klucel (hydroxypropylcellulose) (HPC)",104 % of control
same,T/C,"dose: 240.0 mg/kg/injection, schedule: Q01DX005 (ip), vehicle: Klucel (hydroxypropylcellulose) (HPC)",99 % of control
